The source of these data is patent publication US20110118238A1, “2-ANILINOPURIN-8-ONES AS INHIBITORS OF TTK/MPS1 FOR THE TREATMENT OF PROLIFERATIVE DISORDERS” (ASTRAZENECA AB, priority 2007, published 2011).

pIC50: −log10 of the molar value.

Test [1] deals with T1, N-terminal GST tagged full length human TTK kinase (Homo sapiens, UniProt P33981).
T1 construct: N-terminal GST tagged full length human TTK kinase; GST (N); made in house; host or cells: insect cells
T1 sequence (P33981 1-857): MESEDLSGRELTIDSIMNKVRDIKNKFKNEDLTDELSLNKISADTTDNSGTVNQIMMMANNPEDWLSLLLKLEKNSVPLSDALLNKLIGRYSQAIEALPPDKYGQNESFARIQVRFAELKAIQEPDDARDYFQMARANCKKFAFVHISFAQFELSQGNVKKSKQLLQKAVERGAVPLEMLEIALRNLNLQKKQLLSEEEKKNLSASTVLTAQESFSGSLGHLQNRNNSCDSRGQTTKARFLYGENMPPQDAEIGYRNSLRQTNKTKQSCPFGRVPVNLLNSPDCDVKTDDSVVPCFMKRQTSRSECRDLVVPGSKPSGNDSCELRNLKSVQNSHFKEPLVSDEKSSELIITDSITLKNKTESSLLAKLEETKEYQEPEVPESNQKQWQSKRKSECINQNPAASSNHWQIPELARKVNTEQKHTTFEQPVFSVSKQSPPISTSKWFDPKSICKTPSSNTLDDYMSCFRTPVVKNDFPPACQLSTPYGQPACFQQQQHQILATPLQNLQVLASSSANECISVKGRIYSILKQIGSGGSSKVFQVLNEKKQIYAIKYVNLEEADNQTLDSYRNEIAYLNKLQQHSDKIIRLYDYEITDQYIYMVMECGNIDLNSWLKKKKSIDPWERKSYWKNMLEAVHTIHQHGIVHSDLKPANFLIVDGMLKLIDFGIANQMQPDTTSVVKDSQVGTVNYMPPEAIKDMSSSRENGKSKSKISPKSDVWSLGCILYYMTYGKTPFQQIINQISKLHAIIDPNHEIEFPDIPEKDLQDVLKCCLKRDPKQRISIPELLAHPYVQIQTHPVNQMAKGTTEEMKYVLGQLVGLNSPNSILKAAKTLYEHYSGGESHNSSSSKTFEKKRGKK
Briefly: In Vitro TTK Kinase Assay 1 (AlphaScreen). It is filed as biochemical. As to conditions: recombinant TTK, 10 μM ATP, read-out: EAA: Enzyme Assay Activity (In Vitro TTK kinase assay 1). Here is the method:
Aliquots (2 μL) of each compound dilution were placed into wells of a Greiner 384-well low volume white polystyrene plate (Greiner Bio-one).
The resultant signals arising from laser light excitation at 680 nm were read using a Packard Envision instrument.
(In general: Bead proximity is the source of the signal in Alpha formats.)

Test [2] has as its target T1, N-terminal GST tagged full length human TTK kinase. Briefly: In Vitro TTK Kinase Assay 2 (Caliper LabChip LC3000). As to conditions: recombinant TTK, 12 μM ATP, read-out: EAA2: Enzyme Assay Activity (In Vitro TTK kinase assay 2). It is filed as biochemical. The procedure:
Each reaction was stopped by the addition of EDTA to a concentration of 40 mM in a solution which also comprised 0.1% coating reagent (Caliper LS), 100 mM HEPES pH 7.5, 0.015% v/v Brij™-35 and 5% DMSO. The stopped enzyme reactions were sipped through capillaries onto a Caliper chip where the peptide substrate and phosphorylated product were separated and detected via laser-induced fluorescence.

As to `CCOc1cc(N2CCC(N(C)C)CC2)ccc1Nc1ncc2c(n1)n(C1CCCC1)c(=O)n2C` [Example 23, 9-Cyclopentyl-2-({4-[4-(dimethylamino)piperidin-1-yl]-2-ethoxyphenyl}amino)-7-methyl-7,9-dihydro-8H-purin-8-one], the figures for the pIC50 in test [1] and in test [2] were 6.15 and 7.12, respectively.
Take `Cc1cc(S(N)(=O)=O)ccc1Nc1ncc2c(n1)n(C1CCCC1)c(=O)n2C` [Example 2, 4-[(9-Cyclopentyl-7-methyl-8-oxo-8,9-dihydro-7H-purin-2-yl)-amino]-3-methylbenzenesulfonamide]: the pIC50 in test [1] is 5.89; in test [2] it was 7.78.
With `COc1cc(C(=O)NC2CC3CCCC(C2)N3C)ccc1Nc1ncc2c(n1)n(C1CCCC1)c(=O)n2C` (stereo not drawn) [Example 14, 4-[(9-Cyclopentyl-7-methyl-8-oxo-8,9-dihydro-7H-purin-2-yl)-amino]-3-methoxy-N-(9-methyl-9-azabicyclo[3.3.1]non-3-yl)benzamide], the pIC50 in test [1] was 5.81; in test [2], 7.16.
In the same order, the values of `COc1cc(NC2CCN(C)CC2)ccc1Nc1ncc2c(n1)n(C1CCCC1)c(=O)n2C` [Example 22, 9-Cyclopentyl-2-({2-methoxy-4-[(1-methylpiperidin-4-yl)-amino]-phenyl}amino)-7-methyl-7,9-dihydro-8H-purin-8-one] are 6.50 and 6.93.
Consider `CCOc1cc(OC2CCN(C)CC2)ccc1Nc1ncc2c(n1)n(C1CCCC1)c(=O)n2C` [Example 26, 9-Cyclopentyl-2-({2-ethoxy-4-[(1-methylpiperidin-4-yl)-oxy]-phenyl}amino)-7-methyl-7,9-dihydro-8H-purin-8-one], for which the values for the pIC50 in test [1] and in test [2] were 7.29 and 7.59, respectively.
In the same order, the values of `COc1cc(C(=O)N2CCCC2)ccc1Nc1ncc2c(n1)n(C1CCCC1)c(=O)n2C` [Example 10, 9-Cyclopentyl-2-{[2-methoxy-4-(pyrrolidin-1-ylcarbonyl)-phenyl]amino}-7-methyl-7,9-dihydro-8H-purin-8-one] are 5.98 and 7.71.
On to `COc1cc(C(=O)NC2CCN(C)CC2)ccc1Nc1ncc2c(n1)n(C1CCCC1)c(=O)n2C` [Example 1], for which the pIC50 in test [1] was 6.21; in test [2] it was 7.19.
In the same order, the values of `COc1cc(N2CCN(C)CC2)ccc1Nc1ncc2c(n1)n(C1CCCC1)c(=O)n2C` [Example 4, 9-Cyclopentyl-2-{[2-methoxy-4-(4-methylpiperazin-1-yl)-phenyl]amino}-7-methyl-7,9-dihydro-8H-purin-8-one] are 6.67 and 7.64.
The like results for “4-[(9-Cyclopentyl-7-ethyl-8-oxo-8,9-dihydro-7H-purin-2-yl)-amino]-3-methoxy-N-(1-methylpiperidin-4-yl)benzamide [Example 33]” were, in that order, 6.40 and 7.42.
Consider `Cn1c(=O)n(C2CCCC2)c2nc(Nc3ccc(N4CCS(=O)(=O)CC4)cc3)ncc21` [Example 12, 9-Cyclopentyl-2-{[4-(1,1-dioxidothiomorpholin-4-yl)-phenyl]-amino}-7-methyl-7,9-dihydro-8H-purin-8-one], for which the pIC50 in test [1] is 5.93; in test [2], 7.82.
`CN1CCN(c2ccc(Nc3ncc4c(n3)n(C3CCCC3)c(=O)n4C)c(Cl)c2)CC1` [Example 18, 2-{[2-Chloro-4-(4-methylpiperazin-1-yl)phenyl]amino}-9-cyclopentyl-7-methyl-7,9-dihydro-8H-purin-8-one]: the pIC50 in test [1] was 6.60; in test [2], 7.83.
The like results for `Cn1c(=O)n(C2CCCC2)c2nc(Nc3ccc(S(N)(=O)=O)cc3)ncc21` [Example 11, 4-[(9-Cyclopentyl-7-methyl-8-oxo-8,9-dihydro-7H-purin-2-yl)-amino]benzenesulfonamide] were, in that order, 5.02 and 6.78.
Take `CNC(=O)c1ccc(Nc2ncc3c(n2)n(C2CCCC2)c(=O)n3C)c(OC)c1` [Example 9, 4-[(9-Cyclopentyl-7-methyl-8-oxo-8,9-dihydro-7H-purin-2-yl)amino]-3-methoxy-N-methylbenzamide]: the pIC50 in test [1] is 6.48; in test [2], 7.49.
Regarding `COc1cc(C(=O)NC2CCN(C)CC2)ccc1Nc1ncc2c(n1)n(C1CCCC1)c(=O)n2CC#N` [Example 37, 4-{[7-(Cyanomethyl)-9-cyclopentyl-8-oxo-8,9-dihydro-7H-purin-2-yl]amino}-3-methoxy-N-(1-methylpiperidin-4-yl)-benzamide], the pIC50 is 6.30 in test [1] and 7.08 in test [2].
In the case of `COc1cc(N2CCOCC2)ccc1Nc1ncc2c(n1)n(C1CCCC1)c(=O)n2C` [Example 6, 9-Cyclopentyl-2-[(2-methoxy-4-morpholin-4-ylphenyl)-amino]-7-methyl-7,9-dihydro-8H-purin-8-one], the figures for the pIC50 in test [1] and in test [2] were 6.40 and 7.11, respectively.
The like results for `CCn1c(=O)n(C2CCCC2)c2nc(Nc3ccc(S(N)(=O)=O)cc3)ncc21` [Example 34, 4-[(9-Cyclopentyl-7-ethyl-8-oxo-8,9-dihydro-7H-purin-2-yl)-amino]benzenesulfonamide] were, in that order, 5.98 and 7.02.
Consider `CCOc1cc(N2CCCN(C)CC2)ccc1Nc1ncc2c(n1)n(C1CCCC1)c(=O)n2C` [Example 21, 9-Cyclopentyl-2-{[2-ethoxy-4-(4-methyl-1,4-diazepan-1-yl)-phenyl]amino}-7-methyl-7,9-dihydro-8H-purin-8-one], for which the pIC50 in test [1] is 6.42; in test [2], 7.33.
Take `CCOc1cc(OCCN(C)C)ccc1Nc1ncc2c(n1)n(C1CCCC1)c(=O)n2C` [Example 25, 9-Cyclopentyl-2-({4-[2-(dimethylamino)ethoxy]-2-ethoxy-phenyl}-amino)-7-methyl-7,9-dihydro-8H-purin-8-one]: the pIC50 in test [1] was 6.83; in test [2] it was 7.54.
In the case of `COc1cc(N2CCCN(C)CC2)ccc1Nc1ncc2c(n1)n(C1CCCC1)c(=O)n2C` [Example 20, 9-Cyclopentyl-2-{[2-methoxy-4-(4-methyl-1,4-diazepan-1-yl)-phenyl]amino}-7-methyl-7,9-dihydro-8H-purin-8-one], the pIC50 is 6.60 in test [1] and 7.40 in test [2].
With `N#CCn1c(=O)n(C2CCCC2)c2nc(Nc3ccc(S(N)(=O)=O)cc3)ncc21` [Example 38, 4-{[7-(Cyanomethyl)-9-cyclopentyl-8-oxo-8,9-dihydro-7H-purin-2-yl]amino}benzenesulfonamide], the pIC50 in test [1] is 5.82; in test [2], 6.88.
For `COc1cc(C2CCN(C)CC2)ccc1Nc1ncc2c(n1)n(C1CCCC1)c(=O)n2C` [Example 28, 9-Cyclopentyl-2-{[2-methoxy-4-(1-methylpiperidin-4-yl)-phenyl]amino}-7-methyl-7,9-dihydro-8H-purin-8-one], the pIC50 is 7.26 in test [1] and 7.84 in test [2].
